Consider 19 molecules from US10351546B2, “Pyridin-3-yl acetic acid derivatives as inhibitors of human immunodeficiency virus replication” (priority 2015, dated 2019).

One test concerns NL-RLuc virus. Description: Inhibition of HIV replication (NL-RLuc luciferase reporter virus in MT-2 cells). The note with it: Human immunodeficiency virus 1, MT2, 120 h, read-out: Activity. The test is classed as cell-based. An excerpt: Inhibition of HIV replication: A recombinant NL-RLuc proviral clone was constructed in which a section of the nef gene form NL4-3 was replaced with the Renilla Luciferase gene. This virus is fully infectious and can undergo multiple cycles of replication in cell culture. In addition, the luciferous reporter provides a simple and easy method for quantitating the extent of virus growth and consequently, the antiviral activity of test compounds. The plasmid pNLRLuc contains the proviral NL-Rluc DNA cloned into pUC18 at the PvuII site. The NL-RLuc virus was prepared by transfection of 293T cells with the plasmid pNLRLuc. Transfections were performed using the LipofectAMINE PLUS kit form Invitrogen (Carlsbad, Calif.) according to the manufacturer and the virus generated was titered in MT-2 cells. For susceptibility analyses, the titrated virus was used to infect MT-2 cells in the presence of compound, and after 5 days of incubation, cells were processed and quantitated for virus growth by the amount of expressed luciferase. Assay media was RPMI 1640 supplemented with 10% heat inactivated fetal bovine serum (FBS), 100 units/ml penicillin G/100 units/ml streptomycin, 10 mM HEPES buffer pH 7.55 and 2 mM L-glutamine. The results form at least 2 experiments were used to calculate the EC50 values. Luciferase was quantitated using the Dual Luciferase kit form Promega (Madison, Wis.). Susceptibility of viruses to compounds was determined by incubation in the presence of serial dilutions of the compound. The 50% effective concentration (EC50) was calculated by using the exponential form of the median effect equation where (Fa)=1/[1+(ED50/drug conc.)^m](Johnson V A, Byington R T. Infectivity Assay. In Techniques in HIV Research. ed. Aldovini A, Walker B D. 71-76. New York: Stockton Press. 1990). Activity equal to A refers to a compound having an EC50≤100 nM, while B and C denote compounds having an EC50 between 100 nM and 1 uM (B) or >1 uM (C).
(In general: Reporter assays use an easily measured gene product as a stand-in for the process of interest.)
Regarding `Cc1nc(CN2C3CC2CN(Cc2ccccc2)C3)c(-c2ccc(OCCc3ccc(F)cc3)cc2)c(N2CCC(C)(C)CC2)c1[C@H](OC(C)(C)C)C(=O)O` [Example 98, (2S)-2-(6-((3-Benzyl-3,6-diazabicyclo[3.1.1]heptan-6-yl)methyl)-4-(4,4-dimethylpiperidin-1-yl)-5-(4-(4-fluorophenethoxy)phenyl)-2-methylpyridin-3-yl)-2-(tert-butoxy)acetic acid], the EC50 is below 0.1 µM. Still for that read-out and setting: the same measure for `Cc1nc(/C=C/COC(C)C)c(-c2ccc(OCCc3ccc(F)cc3)cc2)c(N2CCC(C)(C)CC2)c1[C@H](OC(C)(C)C)C(=O)O` [Example 54, (S,E)-2-(tert-Butoxy)-2-(4-(4,4-dimethylpiperidin-1-yl)-5-(4-(4-fluorophenethoxy)phenyl)-6-(3-isopropoxyprop-1-en-1-yl)-2-methylpyridin-3-yl)acetic acid]: below 0.1 µM; for `Cc1cc(F)ccc1CN1CCc2cc(-c3c(COC4CCOCC4)nc(C)c([C@H](OC(C)(C)C)C(=O)O)c3N3CCC(C)(C)CC3)ccc2C1` [Example 155, (S)-2-(tert-Butoxy)-2-(4-(4,4-dimethylpiperidin-1-yl)-5-(2-(4-fluoro-2-methylbenzyl)-1,2,3,4-tetrahydroisoquinolin-6-yl)-2-methyl-6-(((tetrahydro-2H-pyran-4-yl)oxy)methyl)pyridin-3-yl)acetic acid]: below 0.1 µM. Still for that read-out and setting: the result for `Cc1cc(F)ccc1CN1CCc2cc(-c3c(CN4CC[C@H](F)C4)nc(C)c([C@H](OC(C)(C)C)C(=O)O)c3N3CCC(C)(C)CC3)ccc2C1` [Example 132, (S)-2-(tert-Butoxy)-2-(4-(4,4-dimethylpiperidin-1-yl)-5-(2-(4-fluoro-2-methylbenzyl)-1,2,3,4-tetrahydroisoquinolin-6-yl)-6-(((S)-3-fluoropyrrolidin-1-yl)methyl)-2-methylpyridin-3-yl)acetic acid] reads below 0.1 µM; that for `Cc1nc(CCCN(C)C)c(-c2ccc(OCCc3ccc(F)cc3)cc2)c(N2CCC(C)(C)CC2)c1[C@H](OC(C)(C)C)C(=O)O` [Example 59, (S)-2-(tert-Butoxy)-2-(6-(3-(dimethylamino)propyl)-4-(4,4-dimethylpiperidin-1-yl)-5-(4-(4-fluorophenethoxy)phenyl)-2-methylpyridin-3-yl)acetic acid], below 0.1 µM; that for `Cc1nc(CNCC2CCCCC2)c(-c2ccc(OCCc3ccc(F)cc3)cc2)c(N2CCC(C)(C)CC2)c1[C@H](OC(C)(C)C)C(=O)O` [Example 99, (S)-2-(tert-Butoxy)-2-(6-(((cyclohexylmethyl)amino)methyl)-4-(4,4-dimethylpiperidin-1-yl)-5-(4-(4-fluorophenethoxy)phenyl)-2-methylpyridin-3-yl)acetic acid], below 0.1 µM.

As to `Cc1nc(CO)c(-c2ccc(OCCc3ccc(F)cc3)cc2)c(N2CCC(C)(C)CC2)c1[C@H](OC(C)(C)C)C(=O)O` [Example 2, (S)-2-(tert-Butoxy)-2-(4-(4,4-dimethylpiperidin-1-yl)-5-(4-(4-fluorophenethoxy)phenyl)-6-(hydroxymethyl)-2-methylpyridin-3-yl)acetic acid], the EC50 was below 0.1 µM. Same read-out and setting: the result for `Cc1cc(F)ccc1CN1CCc2cc(-c3c(CN4CCC5(CCC5)CC4)nc(C)c([C@H](OC(C)(C)C)C(=O)O)c3N3CCC(C)(C)CC3)ccc2C1` [Example 134, (S)-2-(6-(7-Azaspiro[3.5]nonan-7-ylmethyl)-4-(4,4-dimethylpiperidin-1-yl)-5-(2-(4-fluoro-2-methylbenzyl)-1,2,3,4-tetrahydroisoquinolin-6-yl)-2-methylpyridin-3-yl)-2-(tert-butoxy)acetic acid] reads below 0.1 µM; that for `Cc1nc(Cn2cnnc2C)c(-c2ccc(OCCc3ccc(F)cc3)cc2)c(N2CCC(C)(C)CC2)c1[C@H](OC(C)(C)C)C(=O)O` [Example 33, (S)-2-(tert-butoxy)-2-(4-(4,4-dimethylpiperidin-1-yl)-5-(4-(4-fluorophenethoxy)phenyl)-2-methyl-6-((3-methyl-4H-1,2,4-triazol-4-yl)methyl)pyridin-3-yl)acetic acid], below 0.1 µM. Turning to `Cc1nc(CC2CCC(C)(C)CC2)c(-c2ccc(OCCc3ccc(F)cc3)cc2)c(N2CCC(C)(C)CC2)c1[C@H](OC(C)(C)C)C(=O)O` [Example 173, (S)-2-(tert-Butoxy)-2-(6-((4,4-dimethylcyclohexyl)methyl)-4-(4,4-dimethylpiperidin-1-yl)-5-(4-(4-fluorophenethoxy)phenyl)-2-methylpyridin-3-yl)acetic acid], the EC50 was below 0.1 µM. On the same count and under the same terms, the same measure for `Cc1cc(F)ccc1CN1CCc2cc(-c3c(CNCc4cccnc4)nc(C)c([C@H](OC(C)(C)C)C(=O)O)c3N3CCC(C)(C)CC3)ccc2C1` [Example 126, (S)-2-(tert-Butoxy)-2-(4-(4,4-dimethylpiperidin-1-yl)-5-(2-(4-fluoro-2-methylbenzyl)-1,2,3,4-tetrahydroisoquinolin-6-yl)-2-methyl-6-(((pyridin-3-ylmethyl)amino)methyl)pyridin-3-yl)acetic acid]: below 0.1 µM. Still for that read-out and setting: the same measure for `CC(=O)NCc1nc(C)c([C@H](OC(C)(C)C)C(=O)O)c(N2CCC(C)(C)CC2)c1-c1ccc2c(c1)CCN(Cc1ccc(F)cc1C)C2` [Example 140, (S)-2-(6-(Acetamidomethyl)-4-(4,4-dimethylpiperidin-1-yl)-5-(2-(4-fluoro-2-methylbenzyl)-1,2,3,4-tetrahydroisoquinolin-6-yl)-2-methylpyridin-3-yl)-2-(tert-butoxy)acetic acid]: below 0.1 µM. As to `Cc1cc(F)ccc1CN1CCc2cc(-c3c(CN(C)CC4CCOCC4)nc(C)c([C@H](OC(C)(C)C)C(=O)O)c3N3CCC(C)(C)CC3)ccc2C1` [Example 137, (S)-2-(tert-Butoxy)-2-(4-(4,4-dimethylpiperidin-1-yl)-5-(2-(4-fluoro-2-methylbenzyl)-1,2,3,4-tetrahydroisoquinolin-6-yl)-2-methyl-6-((methyl((tetrahydro-2H-pyran-4-yl)methyl)amino)methyl)pyridin-3-yl)acetic acid], the EC50 is below 0.1 µM. Regarding `Cc1cc(F)ccc1CN1CCc2cc(-c3c(CN4CCC(O)CC4)nc(C)c([C@H](OC(C)(C)C)C(=O)O)c3N3CCC(C)(C)CC3)ccc2C1` [Example 135, (S)-2-(tert-Butoxy)-2-(4-(4,4-dimethylpiperidin-1-yl)-5-(2-(4-fluoro-2-methylbenzyl)-1,2,3,4-tetrahydroisoquinolin-6-yl)-6-((4-hydroxypiperidin-1-yl)methyl)-2-methylpyridin-3-yl)acetic acid], the EC50 is below 0.1 µM. `Cc1nc(-c2nc3ccc(Cl)cc3[nH]2)c(-c2ccc(OCCc3ccc(F)cc3)cc2)c(N2CCC(C)(C)CC2)c1[C@H](OC(C)(C)C)C(=O)O` [Example 44, (S)-2-(tert-Butoxy)-2-(6-(6-chloro-1H-benzo[d]imidazol-2-yl)-4-(4,4-dimethylpiperidin-1-yl)-5-(4-(4-fluorophenethoxy)phenyl)-2-methylpyridin-3-yl)acetic acid]: the EC50 is below 0.1 µM. On the same count and under the same terms, the same measure for `CCOCc1nc(C)c([C@H](OC(C)(C)C)C(=O)O)c(N2CCC(C)(C)CC2)c1-c1ccc(OCCc2ccc(F)cc2)cc1` [Example 8, (S)-2-(tert-Butoxy)-2-(4-(4,4-dimethylpiperidin-1-yl)-6-(ethoxymethyl)-5-(4-(4-fluorophenethoxy)phenyl)-2-methylpyridin-3-yl)acetic acid]: below 0.1 µM; for `CCOCc1nc(C)c([C@H](OC(C)(C)C)C(=O)O)c(N2CCC(C)(C)CC2)c1-c1ccc2c(c1)CCN(Cc1ccc(F)cc1C)C2` [Example 156, (S)-2-(tert-Butoxy)-2-(4-(4,4-dimethylpiperidin-1-yl)-6-(ethoxymethyl)-5-(2-(4-fluoro-2-methylbenzyl)-1,2,3,4-tetrahydroisoquinolin-6-yl)-2-methylpyridin-3-yl)acetic acid]: below 0.1 µM; for `Cc1nc(CNCCO)c(-c2ccc(OCCc3ccc(F)cc3)cc2)c(N2CCC(C)(C)CC2)c1[C@H](OC(C)(C)C)C(=O)O` [Example 69, (S)-2-(tert-Butoxy)-2-(4-(4,4-dimethylpiperidin-1-yl)-5-(4-(4-fluorophenethoxy)phenyl)-6-(((2-hydroxyethyl)amino)methyl)-2-methylpyridin-3-yl)acetic acid]: below 0.1 µM. Still for that read-out and setting: the same measure for `Cc1nc(CN2CCC(O)CC2)c(-c2ccc(OCCc3ccc(F)cc3)cc2)c(N2CCC(C)(C)CC2)c1[C@H](OC(C)(C)C)C(=O)O` [Example 87, (S)-2-(tert-Butoxy)-2-(4-(4,4-dimethylpiperidin-1-yl)-5-(4-(4-fluorophenethoxy)phenyl)-6-((4-hydroxypiperidin-1-yl)methyl)-2-methylpyridin-3-yl)acetic acid]: below 0.1 µM.

Staying with this test, now noted: Human immunodeficiency virus 1, MT2, 120 h, read-out: EC50 μM.
Regarding `Cc1cc(F)ccc1CN1CCc2cc(-c3c(COC4CCOCC4)nc(C)c([C@H](OC(C)(C)C)C(=O)O)c3N3CCC(C)(C)CC3)ccc2C1` [Example 155, (S)-2-(tert-Butoxy)-2-(4-(4,4-dimethylpiperidin-1-yl)-5-(2-(4-fluoro-2-methylbenzyl)-1,2,3,4-tetrahydroisoquinolin-6-yl)-2-methyl-6-(((tetrahydro-2H-pyran-4-yl)oxy)methyl)pyridin-3-yl)acetic acid], the EC50 was 0.001 µM. With `Cc1cc(F)ccc1CN1CCc2cc(-c3c(CN4CCC5(CCC5)CC4)nc(C)c([C@H](OC(C)(C)C)C(=O)O)c3N3CCC(C)(C)CC3)ccc2C1` [Example 134, (S)-2-(6-(7-Azaspiro[3.5]nonan-7-ylmethyl)-4-(4,4-dimethylpiperidin-1-yl)-5-(2-(4-fluoro-2-methylbenzyl)-1,2,3,4-tetrahydroisoquinolin-6-yl)-2-methylpyridin-3-yl)-2-(tert-butoxy)acetic acid], the EC50 was determined as 0.001 µM. Regarding `Cc1nc(CC2CCC(C)(C)CC2)c(-c2ccc(OCCc3ccc(F)cc3)cc2)c(N2CCC(C)(C)CC2)c1[C@H](OC(C)(C)C)C(=O)O` [Example 173, (S)-2-(tert-Butoxy)-2-(6-((4,4-dimethylcyclohexyl)methyl)-4-(4,4-dimethylpiperidin-1-yl)-5-(4-(4-fluorophenethoxy)phenyl)-2-methylpyridin-3-yl)acetic acid], the EC50 is 0.035 µM.
